According to the NIST ThermoML archive (doi:10.1016/j.tca.2018.08.022):
Numbers after ± are expanded uncertainties.

How the values were obtained:
[1] = for mass density: 101.33 kPa, X-ray diffraction
[2] = Molar enthalpy of transition or fusion; conditions: DSC

| SMILES | Triple point temperature ([1]; Crystal, visual observation) | Molar enthalpy of transition or fusion ([2]; Crystal 1) | Molar enthalpy of transition or fusion ([2]; Crystal 2) | Triple point temperature ([1]; Crystal 1, DSC) | Triple point temperature ([1]; Crystal 2, DSC) | Triple point temperature ([1]; Metastable crystal, DSC) | other results |
| --- | --- | --- | --- | --- | --- | --- | --- |
| N#Cc1cc(N)ccc1-c1ccc2c(c1)C(=O)NC2=O [5-amino-2-(1,3-dioxoisoindolin-5-yl)benzonitrile] | 589.15 ± 3 K |  |  |  |  |  |  |
| CCCCN(CCCC)c1ccc(N=Nc2ccc(-c3ccc4c(c3)C(=O)NC4=O)c(C#N)c2)cc1 |  | 6.72 ± 0.239 kcal/mol | 0.621 ± 0.0478 kcal/mol | 456.85 ± 0.8 K | 436.45 ± 0.8 K |  | mass density ([1]; 200 K, Crystal 2): 1262 ± 7 kg/m3 |
| CCCCN(CCCC)c1ccc(N=Nc2ccc(-c3ccc(C#N)c(C#N)c3)c(C#N)c2)cc1 |  | 8.39 ± 0.311 kcal/mol |  | 427.35 ± 0.8 K |  | 403.45 ± 0.8 K | mass density ([1]; 296 K, Crystal 1): 1165 ± 6 kg/m3; Glass transition temperature ([1]; Glass, DSC): 42.00 ± 0.8 °C |
| CCN(CC)c1ccc(N=Nc2ccc(-c3ccc(C#N)c(C#N)c3)c(C#N)c2)cc1 |  | 8.13 ± 0.287 kcal/mol | 1.31 ± 0.0717 kcal/mol | 503.45 ± 0.8 K | 487.95 ± 0.8 K | 489.35 ± 0.8 K | mass density ([1]; 296 K, Crystal 2): 1217 ± 8 kg/m3 |
| N#Cc1ccc(-c2ccc([N+](=O)[O-])cc2C#N)cc1C#N [4-nitro-[1,1'-biphenyl]-2,3',4'-tricarbonitrile] | 472.15 ± 3 K |  |  |  |  |  |  |
| CCCCCCCCN(CCCCCCCC)c1ccc(N=Nc2ccc(-c3ccc(C#N)c(C#N)c3)c(C#N)c2)cc1 |  |  |  | 368.35 ± 0.8 K |  | 365.05 ± 0.8 K | mass density ([1]; 296 K, Metastable crystal): 1124 ± 7 kg/m3 |
| N#Cc1ccc(-c2ccc(N)cc2C#N)cc1C#N [4-amino-[1,1'-biphenyl]-2,3',4'-tricarbonitrile] | 558.15 ± 3 K |  |  |  |  |  |  |
| N#Cc1cc([N+](=O)[O-])ccc1-c1ccc2c(c1)C(=O)NC2=O [2-(1,3-dioxoisoindolin-5-yl)-5-nitrobenzonitrile] | 567.15 ± 3 K |  |  |  |  |  |  |
| CCCCN(CCCC)c1ccc(N=Nc2cccc(C#N)c2-c2ccc(C#N)c(C#N)c2)cc1 |  | 8.48 ± 0.311 kcal/mol | 0.645 ± 0.0478 kcal/mol | 469.05 ± 0.8 K | 386.25 ± 0.8 K |  | mass density ([1]; 296 K, Crystal 2): 1180 ± 6 kg/m3 |
